The structures appear in SMILES notation.

These results are taken from US20250171417A1, “HETEROCYCLIC DERIVATIVE, AND COMPOSITION AND PHARMACEUTICAL USE THEREOF” (Xizang Haisco Pharmaceutical Co., Ltd., priority 2021, published 2025).

Data set [1] concerns Prostate cancer cells 22RV1. Put plainly: Experiment on inhibiting 22RV1 cell proliferation (CellTiter-Glo, 7 days). It counts as cell-based. As to conditions: Homo sapiens, 168 h, 22RV1 cells, 7 days incubation, cells with nM printed beside the value, read-out: IC50 values for inhibition of 22RVI cells. A digest of the protocol: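 22RV1 cells at 2000/well in 1% charcoal-stripped-FBS phenol red-free medium, treated next day with compound for 7 days at 37 °C, 5% CO2. Viability by CellTiter-Glo luminescence; inhibition relative to DMSO vehicle, IC50 from dose-response fit.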
In general terms: In ATP-based viability assays light output follows the ATP content of the culture.

Data set [2] deals with T1, AR splice variant 7 (AR-V7) (Homo sapiens, UniProt P10275).
T1 construct: host or cells: 22RV1 prostate cancer cells
T1 sequence (P10275 1-644 isoform P10275-3): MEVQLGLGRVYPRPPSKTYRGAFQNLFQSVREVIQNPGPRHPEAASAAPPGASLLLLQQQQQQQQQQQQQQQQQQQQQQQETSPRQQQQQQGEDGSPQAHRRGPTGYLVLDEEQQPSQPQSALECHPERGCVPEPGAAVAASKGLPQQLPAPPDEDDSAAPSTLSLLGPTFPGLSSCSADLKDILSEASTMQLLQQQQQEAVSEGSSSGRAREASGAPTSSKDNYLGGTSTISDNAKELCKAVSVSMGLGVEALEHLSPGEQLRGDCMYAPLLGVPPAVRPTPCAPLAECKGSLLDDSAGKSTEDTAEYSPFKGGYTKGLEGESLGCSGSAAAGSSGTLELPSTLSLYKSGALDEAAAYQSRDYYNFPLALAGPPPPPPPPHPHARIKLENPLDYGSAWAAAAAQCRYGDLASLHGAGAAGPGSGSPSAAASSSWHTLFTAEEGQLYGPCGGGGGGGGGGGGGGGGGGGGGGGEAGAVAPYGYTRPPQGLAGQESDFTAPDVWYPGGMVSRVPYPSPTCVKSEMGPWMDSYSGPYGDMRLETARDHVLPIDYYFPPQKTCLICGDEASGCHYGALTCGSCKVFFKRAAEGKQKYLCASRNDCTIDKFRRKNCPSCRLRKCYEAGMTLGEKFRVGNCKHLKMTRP
Put plainly: Degradation experiment on AR splice variant 7 (AR-V7) in 22RV1 cells. It counts as cell-based. As to conditions: 24 h. The procedure: Prostate cancer cells 22RV1 were purchased from ATCC, the cell medium was 1640+10% FBS, and the cells were cultured in an incubator at 37° C. under 5% CO2. On day 1, the cells in an exponential phase were collected. With a 1% css-FBS phenol red-free medium, the cell suspension was adjusted to a corresponding concentration and plated into a 6-well plate at 1 mL/well and 300000 cells/well. The next day, a 1% css-FBS phenol-free medium containing the compound to be tested was added, a 1% css-FBS phenol-free medium containing 0.2% DMSO was added to one well as DMSO vehicle control, and the 6-well plate was cultured in an incubator at 37° C. under 5% CO2. After 24 h, the cells were digested with pancreatin and collected into a 1.5 mL centrifuge tube. 15 μL of RIPA lysate (containing 1× protease inhibitor cocktail) was added to each well, and the cells were lysed on ice for 15 min and then centrifuged at 12000 g at 4° C.′ for 10 min. The supernatant protein samples were collected, and protein quantification was performed by a BCA method. AR-V7 was detected using fully automatic protein expression quantitative analysis, which involved diluting the protein to be tested to 2 mg/mL, 4 μL of the diluted protein samples were added to 1 μL of 5× Master Mix (provided in the kit), and the prepared samples were denatured at 95° C. for 5 min and placed on ice for use. The primary antibodies. AR V7 (CST, 19672S) and β-actin (CST, 3700), were diluted with Antibody Diluent II (provided in the kit) at a dilution ratio of 1:10 and 1:500, respectively. The secondary antibody was a mixed goat anti-mouse and goat anti-rabbit secondary antibody in a ratio of 1:1, and the color development solution was a mixed solution of Lumino-S and Peroxide in a ratio of 1:1. The prepared reagents were successively added to an assay plate according to instructions of the kit and detected on an instrument. Western blot band processing was performed using “Compass for SW”, a fully automatic protein expression quantitative analysis software, in which western blot bands were automatically simulated based on signal values. The degradation rate of AR-V7 (4) relative to vehicle control at different compound concentrations was calculated according to formula (4), wherein AR-V7compound was the relative peak area of AR-V7 in the treated group, and AR-V7solvent was the relative peak area of AR-V7 in the vehicle control group.
DC50 calculation: the compound concentration DC50 values at which the degradation rate of AR-V7 was 50% were calculated using Graphpad software and analyzed using log (inhibitor) vs. response-Variable slope (four parameters) function according to formula (4).

The nature of data set [3]: Pharmacokinetic test in rats. The class given is in vivo. To be noted: rat, plasma, po, male SD rats; for bioavailability: i.g. 5 mg/kg vs intravenous 2 mg/kg; for AUC(0-t): i.g. 5 mg/kg. The procedure:
Test objective: In this experiment, a single dose of each test compound was administered to SD rats intravenously and intragastrically, and the concentrations of the test compounds in plasma of rats were measured to evaluate the pharmacokinetic characteristics of the test compounds in rats.
Experimental animals: male SD rats, 200-250 g, 6-8 weeks old, 6 rats/compound, purchased from Chengdu Ddossy Experimental Animals Co., Ltd.
Experimental method: on the day of the test, 6 SD rats were randomly grouped according to their body weight; the animals were fasted with water available for 12 to 14 hours one day before the administration of a test compound, and were fed 4 hours after the administration.
Sampling: Before and after the administration, 0.1 mL of blood samples were drawn from the orbits of the animals under isoflurane anesthesia, and placed in an EDTAK2 centrifuge tube. Centrifugation was carried out at 5000 rpm at 4° C. for 10 min, and the plasma was collected.
Time points for plasma collection in IV&PO group: 0, 5 min, 15 min, 30 min, 1 h, 2 h, 4 h, 6 h, 8 h, and 24 h.
Before analysis and detection, all samples were stored at −60° C. The samples were analyzed quantitatively by LC-MS/MS.

As to `Cc1nn(C2(C(=O)Nc3ccc(C(F)(F)F)cc3Cl)CCC2)cc1C#CC1CN(c2ccc3c(c2)C(=O)N(C2CCC(=O)NC2=O)C3=O)C1` (centres unmarked) [Compound 164, N-(2-chloro-4-(trifluoromethyl)phenyl)-1-(4-((1-(2-(2,6-dioxopiperidin-3-yl)-1,3-dioxoisoindolin-5-yl)azetidin-3-yl)ethynyl)-3-methyl-1H-pyrazol-1-yl)cyclobutane-1-carboxamide], the IC50 in data set [1] is below 50 nM. In data set [2], this compound had a DC50 below 0.5 µM.

In the case of `CC(C)(C(=O)Nc1ccc(C#N)cc1C1CC1)n1cc(C#CC2CN(c3ccc4c(c3)C(=O)N(C3CCC(=O)NC3=O)C4=O)C2)cn1` (centres unmarked) [Compound 39, N-(4-cyano-2-cyclopropylphenyl)-2-(4-((1-(2-(2,6-dioxopiperidin-3-yl)-1,3-dioxoisoindolin-5-yl)azetidin-3-yl)ethynyl)-1H-pyrazol-1-yl)-2-methylpropanamide], the IC50 in data set [1] was below 50 nM. The DC50 in data set [2] is below 0.5 µM.

In the case of `N#Cc1nn(C2(C(=O)Nc3ccc(C(F)(F)F)cc3Cl)CCC2)cc1C#CC1CN(c2ccc3c(c2)C(=O)N(C2CCC(=O)NC2=O)C3=O)C1` (centres unmarked) [Compound 160, N-(2-chloro-4-(trifluoromethyl)phenyl)-1-(3-cyano-4-((1-(2-(2,6-dioxopiperidin-3-yl)-1,3-dioxoisoindolin-5-yl)azetidin-3-yl)ethynyl)-1H-pyrazol-1-yl)cyclobutane-1-carboxamide], the IC50 in data set [1] was below 50 nM. This compound registered a DC50 in data set [2] below 0.5 µM.

On to `CC(C)(C(=O)Nc1ccc(C(F)(F)F)cc1Cl)n1cc(C#CC2CN(c3ccc4c(c3)C(=O)N(C3CCC(=O)NC3=O)C4=O)C2)cn1` (centres unmarked) [Compound 11, N-(2-chloro-4-(trifluoromethyl)phenyl)-2-(4-((1-(2-(2,6-dioxopiperidin-3-yl)-1,3-dioxoisoindolin-5-yl)azetidin-3-yl)ethynyl)-1H-pyrazol-1-yl)-2-methylpropanamide], for which the IC50 in data set [1] was below 50 nM. Moreover, the DC50 in data set [2] was below 0.5 µM. Also, in data set [3], the bioavailability was found to be 90.9 ± 2.4% and the exposure AUC(0-t) amounted to 16000 ± 431 ng·h/mL.

Consider `O=C1CCC(N2C(=O)c3ccc(N4CC(C#Cc5cnn(C6(C(=O)Nc7ccc(C(F)(F)F)cc7Cl)CCC6)c5)C4)cc3C2=O)C(=O)N1` (centres unmarked) [Compound 14, N-(2-chloro-4-(trifluoromethyl)phenyl)-1-(4-((1-(2-(2,6-dioxopiperidin-3-yl)-1,3-dioxoisoindolin-5-yl)azetidin-3-yl)ethynyl)-1H-pyrazol-1-yl)cyclobutane-1-carboxamide], for which the IC50 in data set [1] is below 50 nM. The compound further displayed a DC50 in data set [2] below 0.5 µM.

With `CC(C)(C(=O)Nc1ccc(C#N)c(C2CC2)c1)n1cc(C#CC2CN(c3ccc4c(c3)C(=O)N(C3CCC(=O)NC3=O)C4=O)C2)cn1` (centres unmarked) [Compound 29, N-(4-cyano-3-cyclopropylphenyl)-2-(4-((1-(2-(2,6-dioxopiperidin-3-yl)-1,3-dioxoisoindolin-5-yl)azetidin-3-yl)ethynyl)-1H-pyrazol-1-yl)-2-methylpropanamide], the IC50 in data set [1] is below 100 nM. Besides, the half-maximal degradation concentration (DC50) in data set [2] is below 0.5 µM. The AUC(0-t) in data set [3] stood at 48700 ± 7060 ng·h/mL.

`CC#Cc1cc(C(F)(F)F)ccc1NC(=O)C(C)(C)n1cc(C#CC2CN(c3ccc4c(c3)C(=O)N(C3CCC(=O)NC3=O)C4=O)C2)cn1` (centres unmarked) [Compound 118, 2-(4-((1-(2-(2,6-dioxopiperidin-3-yl)-1,3-dioxoisoindolin-5-yl)azetidin-3-yl)ethynyl)-1H-pyrazol-1-yl)-2-methyl-N-(2-(prop-1-yn-1-yl)-4-(trifluoromethyl)phenyl) propanamide]: the IC50 in data set [1] is below 50 nM. In data set [2], this compound came in with a DC50 below 0.5 µM. In addition, in data set [3], the bioavailability came out at 52.4 ± 3.1% and the AUC(0-t) was 14000 ± 816 ng·h/mL.

With `CC(C)(C(=O)Nc1ccc(C(F)(F)F)cc1-c1nccs1)n1cc(C#CC2CN(c3ccc4c(c3)C(=O)N(C3CCC(=O)NC3=O)C4=O)C2)cn1` (centres unmarked) [Compound 155, 2-(4-((1-(2-(2,6-dioxopiperidin-3-yl)-1,3-dioxoisoindolin-5-yl)azetidin-3-yl)ethynyl)-1H-pyrazol-1-yl)-2-methyl-N-(2-(thiazol-2-yl)-4-(trifluoromethyl)phenyl) propanamide], the IC50 in data set [1] is below 50 nM. Further, the half-maximal degradation concentration (DC50) in data set [2] was below 0.5 µM. In data set [3], this compound yielded a bioavailability of 37.9 ± 2.2% and an AUC(0-t) of 12000 ± 711 ng·h/mL.

Regarding `CC(C)(C(=O)Nc1ccc(C(F)(F)F)cc1C1CC1)n1cc(C#CC2CN(c3ccc4c(c3)C(=O)N(C3CCC(=O)NC3=O)C4=O)C2)cn1` (centres unmarked) [Compound 30, N-(2-cyclopropyl-4-(trifluoromethyl)phenyl)-2-(4-((1-(2-(2,6-dioxopiperidin-3-yl)-1,3-dioxoisoindolin-5-yl)azetidin-3-yl)ethynyl)-1H-pyrazol-1-yl)-2-methylpropanamide], in data set [1], the IC50 is below 50 nM. In addition, in data set [2], the half-maximal degradation concentration (DC50) is below 0.5 µM. In data set [3], this compound showed a bioavailability of 98.1 ± 6.6% and an AUC(0-t) of 22500 ± 1510 ng·h/mL.

With `CC(C)(C(=O)Nc1ccc(C#N)c2c1CCCC2)n1cc(C#CC2CN(c3ccc4c(c3)C(=O)N(C3CCC(=O)NC3=O)C4=O)C2)cn1` (centres unmarked) [Compound 56, N-(4-cyano-5,6,7,8-tetrahydronaphthalen-1-yl)-2-(4-((1-(2-(2,6-dioxopiperidin-3-yl)-1,3-dioxoisoindolin-5-yl)azetidin-3-yl)ethynyl)-1H-pyrazol-1-yl)-2-methylpropanamide], in data set [1], the IC50 was below 50 nM. Moreover, the DC50 in data set [2] was below 0.5 µM.

`CC(C)(C(=O)Nc1ccc(C(F)(F)F)cc1Br)n1cc(C#CC2CN(c3ccc4c(c3)C(=O)N(C3CCC(=O)NC3=O)C4=O)C2)cn1` (centres unmarked) [Compound 28, N-(2-bromo-4-(trifluoromethyl)phenyl)-2-(4-((1-(2-(2,6-dioxopiperidin-3-yl)-1,3-dioxoisoindolin-5-yl)azetidin-3-yl)ethynyl)-1H-pyrazol-1-yl)-2-methylpropanamide]: the IC50 in data set [1] was below 50 nM. The compound also gave a half-maximal degradation concentration (DC50) in data set [2] below 0.5 µM.

`CC(C)(C(=O)Nc1ccc(C(F)(F)F)cc1Cl)n1cc(C#CC2CN(c3cc4c(cc3F)C(=O)N(C3CCC(=O)NC3=O)C4=O)C2)cn1` (centres unmarked) [Compound 15]: the IC50 in data set [1] is below 100 nM. Moreover, the DC50 in data set [2] was below 0.5 µM. In data set [3], this compound registered a bioavailability of 73.2 ± 10% and an AUC(0-t) of 10200 ± 1460 ng·h/mL.

The term IC50 denotes the point on the concentration scale where inhibition reaches its midpoint. In general, DC50 refers to the concentration at which degradation of the target reaches its halfway point. A high value points to a less potent degrader. As usually defined, the bioavailability is dose-corrected exposure relative to a reference, in per cent. By AUC(0-t) is commonly meant exposure summed from dosing to a finite time, without extrapolation to infinity. Higher therefore signals high exposure.
